Experimental data as given in US10550102B2, “Indane and indoline derivatives and the use thereof as soluble guanylate cyclase activators” (NOVARTIS AG, priority 2014, dated 2020).

The compounds below were run against soluble guanylate cyclase (human GUCYA3 and GUCYB3) overexpressed in CHO cells (Homo sapiens (Human), UniProt Q02108+Q02153) (assay: CHO cellular assay (cGMP production, Cisbio cGMP HTRF kit)). Conditions: CHO GUCY clone 8E10, cGMP production, assay buffer with 1 mM IBMX and 20 uM ODQ, 1 h room temperature; minimum quantification limit 0.5 nM (listed 0.5 nM means ≤0.5 nM); read-out: EC50.
Format: cell-based
Description: Chinese hamster ovary (CHO) cells overexpressing soluble guanylate cyclase were generated to test the effect of sGC activators in a cellular context. Human cDNAs for GUCYA3 (RefSeq: NM_000856.3) and GUCYB3 (RefSeq: NM_000857.1) were amplified by PCR from a HUVEC (Human Umbilical Vein Endothelial Cells) cDNA library and cloned into mammalian expression vectors. CHO K1 cells (ATCC CCL-61) were transfected using Lipofectamine 2000 following manufacturer's instructions and stably expressing clones were identified by antibiotic selection. CHO GUCY clone 8E10 was used for subsequent experiments. Cells were seeded at a density of 3000 cells/well in white 384-well proxyplates (Perkin Elmer) and incubated overnight, then the medium was removed and cells were washed with assay buffer (HBSS, 0.1% BSA. 1 mM IBMX, 20 uM ODQ). sGC activators were serially diluted in DMSO, then diluted in assay buffer prior to adding to cells (10 ul/well, final DMSO concentration 0.5%). Cells were incubated with compounds for 1 h room temperature, then assayed for cGMP production using Cisbio cGMP HTRF kit (62GM2PEC) according to manufacturer's instructions. The EC50s are calculated based on the amount of cGMP interpolated from the standard curve, using a 4-parameter sigmoidal dose-response.

soluble guanylate cyclase (human GUCYA3 and GUCYB3) overexpressed in CHO cells, sequence (Q02108 whole entry partner): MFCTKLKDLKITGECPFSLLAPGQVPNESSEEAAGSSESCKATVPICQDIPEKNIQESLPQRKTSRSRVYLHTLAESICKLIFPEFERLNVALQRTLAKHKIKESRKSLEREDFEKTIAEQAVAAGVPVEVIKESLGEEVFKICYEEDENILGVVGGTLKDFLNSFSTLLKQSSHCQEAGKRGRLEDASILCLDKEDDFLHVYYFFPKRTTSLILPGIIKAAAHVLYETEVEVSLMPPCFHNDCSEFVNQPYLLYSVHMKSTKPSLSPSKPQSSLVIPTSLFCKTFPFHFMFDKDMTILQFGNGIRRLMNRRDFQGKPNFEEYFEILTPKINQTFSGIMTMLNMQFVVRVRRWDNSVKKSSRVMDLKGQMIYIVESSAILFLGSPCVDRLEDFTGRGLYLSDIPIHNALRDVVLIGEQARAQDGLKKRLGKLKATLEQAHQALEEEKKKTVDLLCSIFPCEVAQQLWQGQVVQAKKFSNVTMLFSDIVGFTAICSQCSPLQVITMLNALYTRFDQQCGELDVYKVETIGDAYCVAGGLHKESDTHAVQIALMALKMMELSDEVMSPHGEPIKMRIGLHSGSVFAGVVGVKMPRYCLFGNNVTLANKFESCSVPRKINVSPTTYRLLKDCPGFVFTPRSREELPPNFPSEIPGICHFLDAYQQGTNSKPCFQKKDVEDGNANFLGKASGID
soluble guanylate cyclase (human GUCYA3 and GUCYB3) overexpressed in CHO cells, sequence (Q02153 whole entry): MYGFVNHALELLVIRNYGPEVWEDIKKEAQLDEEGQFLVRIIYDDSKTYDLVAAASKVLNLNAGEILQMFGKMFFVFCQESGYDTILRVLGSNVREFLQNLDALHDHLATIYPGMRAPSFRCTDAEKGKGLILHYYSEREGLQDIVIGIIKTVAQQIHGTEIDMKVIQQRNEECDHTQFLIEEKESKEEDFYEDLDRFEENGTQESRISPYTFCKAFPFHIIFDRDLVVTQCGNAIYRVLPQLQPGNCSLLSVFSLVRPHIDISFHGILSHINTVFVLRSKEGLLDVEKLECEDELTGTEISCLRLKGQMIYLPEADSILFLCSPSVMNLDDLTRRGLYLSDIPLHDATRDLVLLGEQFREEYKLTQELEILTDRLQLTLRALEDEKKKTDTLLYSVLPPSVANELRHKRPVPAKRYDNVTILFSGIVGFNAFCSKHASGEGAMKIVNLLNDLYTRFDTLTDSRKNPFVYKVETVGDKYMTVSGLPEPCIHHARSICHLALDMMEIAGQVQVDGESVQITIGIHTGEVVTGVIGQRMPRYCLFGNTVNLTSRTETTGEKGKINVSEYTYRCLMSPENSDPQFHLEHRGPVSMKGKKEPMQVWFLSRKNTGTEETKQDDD

| SMILES | EC50 [pM] |
| --- | --- |
| CCc1cc(CC2CCc3cccc(-c4cccc(-n5ncc(C(=O)O)c5C)c4)c32)ccc1C1CCN(C(=O)C2CC2)CC1 (single isomer, unassigned; (+)) [55-1 (+), (+)-1-(3-(3-(4-(1-(cyclopropanecarbonyl)piperidin-4-yl)-3-ethylbenzyl)-2,3-dihydro-1H-inden-4-yl)phenyl)-5-methyl-1H-pyrazole-4-carboxylic acid] | ≤ 500 |
| CCc1cc(CN2CC(C)c3cccc(-c4cccc(-n5ncc(C(=O)O)c5CC)n4)c32)ccc1C1CCN(C(=O)C2CC2)CC1 (single isomer, unassigned; (+)) [(+)-20-1, (+)-1-(6-(1-(4-(1-(Cyclopropanecarbonyl)piperidin-4-yl)-3-ethylbenzyl)-3-methylindolin-7-yl)pyridin-2-yl)-5-ethyl-1H-pyrazole-4-carboxylic acid] | ≤ 500 |
| CCc1cc(CN2CC(C)c3cccc(-c4cccc(-n5ncc(C(=O)O)c5C)n4)c32)ccc1C1CCN(C(=O)C2CC2)CC1 (single isomer, unassigned; (+)) [(+)-20-3, (+)-1-(6-(1-(4-(1-(Cyclopropanecarbonyl)piperidin-4-yl)-3-ethylbenzyl)-3-methylindolin-7-yl)pyridin-2-yl)-5-methyl-1H-pyrazole-4-carboxylic acid] | ≤ 500 |
| CCc1cc(NC2COc3cccc(-c4cccc(-n5ncc(C(=O)O)c5C(F)(F)F)n4)c32)ccc1C1CCN(C(=O)C2CC2)CC1 (single isomer, unassigned; (+)) [(+)-36-1, (+)-1-(6-(3-((4-(1-(Cyclopropanecarbonyl)piperidin-4-yl)-3-ethylphenyl)amino)-2,3-dihydrobenzofuran-4-yl)pyridin-2-yl)-5-(trifluoromethyl)-1H-pyrazole-4-carboxylic acid] | ≤ 500 |
| CCc1cc(NC2COc3cccc(-c4cccc(-n5ncc(C(=O)O)c5CC)n4)c32)ccc1C1CCN(C(=O)C2CC2)CC1 (single isomer, unassigned; (+)) [(+)-36-2, (+)-1-(6-(3-((4-(1-(Cyclopropanecarbonyl)piperidin-4-yl)-3-ethylphenyl)amino)-2,3-dihydrobenzofuran-4-yl)pyridin-2-yl)-5-ethyl-1H-pyrazole-4-carboxylic acid] | ≤ 500 |

More lines, now with the values ahead:

| EC50 [pM] | SMILES |
| --- | --- |
| ≤ 500 | Cc1nnc(N2CCC(c3ccc(NC4CCc5cccc(-c6cccc(-n7ncc(C(=O)O)c7C)n6)c54)c(C)c3)CC2)o1 (single isomer, unassigned; (+)) [58. b). (+), (+)-5-methyl-1-(6-(3-((2-methyl-4-(1-(5-methyl-1,3,4-oxadiazol-2-yl)piperidin-4-yl)phenyl)amino)-2,3-dihydro-1H-inden-4-yl)pyridin-2-yl)-1H-pyrazole-4-carboxylic acid] |
| 9900 | CCc1c(C(=O)O)cnn1-c1cccc(-c2cccc3c2N(Cc2ccc(C4CCN(C(=O)C5CC5)CC4)cc2C)CC3C)n1 (single isomer, unassigned; (+)) [(+)-20-2, (+)-1-(6-(1-(4-(1-(Cyclopropanecarbonyl)piperidin-4-yl)-2-methylbenzyl)-3-methylindolin-7-yl)pyridin-2-yl)-5-ethyl-1H-pyrazole-4-carboxylic acid] |
| ≤ 500 | Cc1cc(C2CCN(C(=O)C(C)C)CC2)ccc1NC1CCc2cccc(-c3cccc(-n4ncc(C(=O)O)c4C)n3)c21 (single isomer, unassigned; (+)) [(+)-46-1] |
| 1000 | Cc1cc(C2CCN(C(=O)CC3CC3)CC2)ccc1NC1CCc2cccc(-c3cccc(-n4ncc(C(=O)O)c4C)n3)c21 (single isomer, unassigned; (+)) [(+)-46-3, (+)-1-(6-(3-((4-(1-(2-Cyclopropylacetyl)piperidin-4-yl)-2-methylphenyl)amino)-2,3-dihydro-1H-inden-4-yl)pyridin-2-yl)-5-methyl-1H-pyrazole-4-carboxylic acid] |
